One experiment relates to Rhizoctonia solani. The experiment is described as follows: Microtest (micro titer plate): activity against Rhizoctonia solani. It counts as cell-based. The following applies: 7 days after inoculation. An excerpt:
(§1) The active compounds were formulated separately as a stock solution having a concentration of 10000 ppm in dimethyl sulfoxide.
(§2) Epoxiconazole was used as commercial finished formulation and diluted with water to the stated concentration of the active compound.
B) 1. Activity against Rhizoctonia solani
(§3) The stock solutions were mixed according to the ratio, pipetted onto a micro titer plate (MTP) and diluted with water to the stated concentrations. A spore suspension of Septoria tritici in an aqueous biomalt solution was then added. The plates were placed in a water vapor-saturated chamber at a temperature of 18° C. Using an absorption photometer, the MTPs were measured at 405 nm 7 days after the inoculation.
(§4) The measured parameters were compared to the growth of the active compound-free control variant (100%) and the fungus-free and active compound-free blank value to determine the relative growth in % of the pathogens in the respective active compounds. These percentages were converted into efficacies. An efficacy of 0 means that the growth level of the pathogens corresponds to that of the untreated control; an efficacy of 100 means that the pathogens were not growing.
(§5) The expected efficacies of active compound mixtures were determined using Colby's formula [R. S. Colby, “Calculating synergistic and antagonistic responses of herbicide combinations”, Weeds 15, 20-22 (1967)] and compared with the observed efficacies.

A further experiment deals with Puccinia recondita. The experiment is described as follows: Greenhouse: preventative control of brown rust on wheat. Particulars: 0.25 ppm, wheat seedlings sprayed 1 day before inoculation, % of untreated control. It counts as in vivo. The procedure: The spray solutions were prepared in several steps:
The stock solution were prepared: a mixture of acetone and/or dimethylsulfoxide and the wetting agent/emulsifier Wettol®, which is based on ethoxylated alkylphenoles, in a relation (volume) solvent-emulsifier of 99 to 1 was added to 25 mg of the compound to give a total of 10 ml.
Water was then added to total volume of 100 ml.
This stock solution was diluted with the described solvent-emulsifier-water mixture to the given concentration.
The product epoxiconazole was used as commercial finished formulation and diluted with water to the stated concentration of the active compound.
Preventative Control of Brown Rust on Wheat Caused by Puccinia recondite
The first two developed leaves of pot-grown wheat seedling were sprayed to run-off with an aqueous suspension, containing the concentration of active ingredient or their mixture as described below. The next day the plants were inoculated with spores of Puccinia recondita. To ensure the success the artificial inoculation, the plants were transferred to a humid chamber without light and a relative humidity of 95 to 99% and 20 to 22 °C. for 24 h. Then the trial plants were cultivated for 6 days in a greenhouse chamber at 22-26° C. and a relative humidity between 65 and 70%. The extent of fungal attack on the leaves was visually assessed as % diseased leaf area. […]
as §5
The visually determined percentages of infected leaf areas were converted into efficacies in % of the untreated control.
The efficacy (E) is calculated as follows using Abbot's formula: […]
The expected efficacies of active compound combinations were determined using Colby's formula (Colby, S. R. “Calculating synergistic and antagonistic responses of herbicide combinations”, Weeds, 15, pp. 20-22, 1967) and compared with the observed efficacies. […]

A further experiment deals with Septoria tritici. The experiment is described as follows: Microtest (micro titer plate): activity against Septoria tritici. It counts as cell-based. Particulars: 7 days after inoculation.
Source text: as §1, §2
B) 2. Activity against Septoria tritici
as §3, §4, §5

SMILES strings stand for the structures.

As for `Fc1ccc([C@]2(Cn3cncn3)O[C@H]2c2ccccc2Cl)cc1` (racemic) [Epoxiconazole, epoxiconazole], the Observed efficacy in the experiment with Rhizoctonia solani (0.004 ppm) turned out to be 0%.
Take `Cn1cc(C(=O)Nc2ccc(F)cc2-c2ccc(Cl)c(Cl)c2)c(C(F)F)n1` [Bixafen, N-(3′,4′-dichloro-5-fluorobiphenyl-2-yl)-3-(difluoromethyl)-1-methylpyrazole-4-carboxamide]: the results for the Observed efficacy in the experiment on Puccinia recondita, with Rhizoctonia solani (0.001 ppm) and in the experiment with Rhizoctonia solani (0.004 ppm) were 0%, 0% and 7%, respectively.
Take `Cc1nn(C)c(F)c1C(=O)Nc1ccccc1C(C)CC(C)C` (stereo not drawn) [Compound (II), N-[2-(1,3-dimethylbutyl)-phenyl]-1,3-dimethyl-5-fluor-1H-pyrazole-4-carboxamide]: the Observed efficacy in the experiment with Septoria tritici (0.004 ppm) is 0%.
Take `CC1(C)CCC(Cc2ccc(Cl)cc2)C1(O)Cn1cncn1` (stereo not drawn) [Metconazole, metconazole]: the Observed efficacy with Puccinia recondita was 33%; in the experiment on Rhizoctonia solani (0.004 ppm), 26%; in the experiment with Rhizoctonia solani (0.016 ppm), 62%; in the experiment on Septoria tritici (0.016 ppm), 19%.
Take `OC(Cc1ccccc1Cl)(Cn1nc[nH]c1=S)C1(Cl)CC1` (stereo not drawn) [Prothioconazole]: the values for the Observed efficacy in the experiment on Puccinia recondita, in the experiment on Rhizoctonia solani (0.016 ppm) and in the experiment on Septoria tritici (0.016 ppm) were 0%, 11% and 5%, respectively.

The values are drawn from US20100331181A1, “Method for Protecting Cereals From Being Infected By Fungi” (BASF SE, priority 2008, published 2010).
